Here are results for three compounds from article PMC5927802, “Pharmacokinetics, safety, and tolerability of the 2‐ and 3‐direct‐acting antiviral combination of AL‐335, odalasvir, and simeprevir in healthy subjects” (Pharmacology Research & Perspectives, 2018).

Like-named read-outs stand apart in the source and are kept apart here.

For one series, the system named is P‐glycoprotein. The following applies: cited from earlier work.
Series [1] in a line: Plasma pharmacokinetics, Phase I open‐label two‐group fixed‐sequence drug‐drug interaction study. The following applies: for AUC0‐24 h LSM ratio / C max LSM ratio: point estimate (90% CI); for AUC: AUC0‐24 h; for Tmax: T max. From the text:
This was an open‐label, two‐group, fixed‐sequence study conducted at a single study center in Rennes, France (Biotrial). A two‐group, fixed‐sequence study design was chosen as this was deemed to be the most efficient way to evaluate the effect of simeprevir with/without odalasvir on AL‐335; and vice versa (Group 1) and the effect of odalasvir with/without simeprevir on AL‐335; and vice versa (Group 2). Thus, this study design had the potential to gather both 2‐way and 3‐way DDIs. For both groups, the study consisted of a screening period, a study period, and two follow‐up visits. The study was authorized by the French National Agency for the Safety of Medicine and Health Products (ANSM) and was approved by an Independent Ethics Committee (Comité de Protection des Personnes [CPP] Ouest VI, Brest, France; Reference CPP Ouest 6–CPP 888/MS1), and was conducted in accordance with the principles of the Declaration of Helsinki and International Conference on Harmonization. All subjects provided written informed consent to participate. Drug and molecular target nomenclature in this manuscript conforms to the British Journal of Pharmacology's Concise Guide to Pharmacology 2017/18.19
Subjects in Group 1 received simeprevir 150 mg QD on days 4‐23, odalasvir 150 mg (loading dose) on day 14, odalasvir 50 mg QD on days 15‐23, and AL‐335 800 mg QD on days 1‐3, 11‐13, and 21‐23. Subjects in Group 2 received odalasvir 150 mg (loading dose) on day 4, odalasvir 50 mg QD on days 5‐23, simeprevir 150 mg QD on days 14‐23, and AL‐335 800 mg QD on days 1‐3, 11‐13, and 21‐23. […] A minimum of 10 days was considered sufficient for both odalasvir and simeprevir to reach steady‐state.
Subjects were assigned sequentially to Group 1 then to Group 2 after confirming eligibility.
As this was an […] pharmacokinetic study, blood samples for pharmacokinetic analysis were collected predose and at 0.25, 0.5, 1, 2, 3, 4, 6, 8, 10, 12, and 24 hours postdose on days 3, 13, and 23 for determination of AL‐335, ALS‐022399, and ALS‐022227 plasma concentrations (Groups 1 and 2). For simeprevir, blood samples for determination of simeprevir plasma concentrations were taken at the same time points but on days 10, 13, 20, and 23 (Group 1) or days 20 and 23 (Group 2). Blood samples for the determination of odalasvir plasma concentrations were collected predose and at 1, 3, 4, 5, 6, 7, 8, 9, 10, 12, 16, and 24 hours postdose on days 20 and 23 (Group 1) or days 10, 13, 20, and 23 (Group 2), with two further samples also collected on the day 7 and day 28 follow‐up assessments (both groups).
Plasma concentrations of AL‐335, ALS‐022399, ALS‐022227, odalasvir, and simeprevir were determined using validated liquid chromatography‐tandem mass spectrometry methods. Dichlorvos solution was added to blood samples from AL‐335‐treated subjects to stabilize AL‐335 and its metabolites (25 μL of 5 mmol/L dichlorvos into 1 mL blood). The lower limit of quantification was 1 ng/mL, 2 ng/mL, and 5 ng/mL for AL‐335, ALS‐022399, and ALS‐022227, respectively, 1 ng/mL for odalasvir, and 2 ng/mL for simeprevir.
Pharmacokinetic analyses were performed on all subjects with available profiles who received at least one dose of study drug without any protocol deviation affecting pharmacokinetic evaluation. […] Secondary parameters were last observed plasma concentration, apparent elimination half‐life, time of the maximum observed plasma concentration (T max), and time to last measurable plasma concentration (T last).

A further series deals with OATP1B1/1B3. The following applies: cited from earlier work.
The subject of series [2] is host polymerases, including the mitochondrial RNA polymerase. The following applies: cited from earlier work.
For series [3], the system named is CYPs 1A2, 2B6, 2C8, 2C9, 2C19, 2D6, and 3A4. Also on record: method as in data on file. Particulars: ref data on file; cited from earlier work.
Series [4] concerns breast cancer resistance protein (BCRP). Particulars: ref data on file; cited from earlier work.
For series [5] the following is noted: in vivo; cited from earlier work.
[6] abbreviates: Group 1 Day 3, AL‐335 alone, mean (SD).
Setting [7] is: Group 1 Day 13, AL‐335 + SMV, mean (SD).
The mark [8] stands for this setting: Group 1 Day 23, AL‐335 + ODV + SMV versus AL‐335 alone.
Setting [9] is: Group 1 Day 23, AL‐335 + ODV + SMV, mean (SD).
Where [10] appears, read: Group 2 Day 3, AL‐335 alone, mean (SD).
[11] abbreviates: Group 2 Day 13, AL‐335 + ODV, mean (SD).
Setting [12] is: Group 2 Day 23, AL‐335 + ODV + SMV versus AL‐335 alone.
Where [13] appears, read: Group 2 Day 23, AL‐335 + ODV + SMV, mean (SD).

With `C[C@]1(O)[C@H](n2ccc(=O)[nH]c2=O)O[C@](F)(CO)[C@H]1O` [ALS‐022227], the “P‐glycoprotein substrate / inhibitor status” value in the series with P‐glycoprotein is “neither substrates nor inhibitors”. In series [1] (human, in vivo), the “difference in T max between any of the treatment combinations” value is “No clinically relevant difference” and the “t 1/2” value is on record as 6.0 (0.5) h. Also, the “OATP1B1/1B3 substrate / inhibitor status” value with OATP1B1/1B3 was “neither substrates nor inhibitors”.
As a reminder, the AUC is concentration integrated over time. The Tmax is the time at which the peak concentration occurs. The half-life is how long it takes for the measured level to halve. In the case of `CC(C)OC(=O)[C@H](C)N[P@](=O)(OC[C@@]1(F)O[C@@H](n2ccc(=O)[nH]c2=O)[C@](C)(O)[C@@H]1O)Oc1ccccc1` [AL‐335], the “difference in T max between any of the treatment combinations” value in series [1] (AL‐335 alone or with odalasvir and/or simeprevir) is on record as “No clinically relevant difference”. In addition, the C last in series [1] (setting [6]) was 6 (8) ng/mL; in series [1] (setting [7]) it was 3 (2) ng/mL; in series [1] (setting [9]), 3 (1) ng/mL; in series [1] (setting [10]), 3 (2) ng/mL; in series [1] (setting [11]), 2 (1) ng/mL; in series [1] (setting [13]) it was 2 (1) ng/mL. Also, the C max in series [1] (setting [6]) is given as 162 (77) ng/mL; in series [1] (setting [7]), 376 (186) ng/mL; in series [1] (setting [9]) it was 747 (340) ng/mL; in series [1] (setting [10]), 151 (72) ng/mL; in series [1] (setting [11]), 516 (259) ng/mL; in series [1] (setting [13]) it was 950 (472) ng/mL. The T last in series [1] (Group 1 Day 3, AL‐335 alone, median (range)) is given as 6.00 (4.00‐6.00) h; in series [1] (Group 1 Day 13, AL‐335 + SMV, median (range)), 8.00 (6.00‐10.00) h; in series [1] (Group 1 Day 23, AL‐335 + ODV + SMV, median (range)), 8.00 (6.00‐10.08) h; in series [1] (Group 2 Day 3, AL‐335 alone, median (range)), 6.00 (4.00‐8.00) h; in series [1] (Group 2 Day 13, AL‐335 + ODV, median (range)), 8.00 (4.00‐12.00) h; in series [1] (Group 2 Day 23, AL‐335 + ODV + SMV, median (range)) it was 10.00 (8.00‐12.03) h. For the same compound, the results for the “AUC0‐24 h LSM ratio” value in series [1] (setting [8]) and in series [1] (setting [12]) were 6.92 (5.46‐8.77) and 8.23 (6.26‐10.82), respectively. Besides, the “C max LSM ratio” value in series [1] (setting [8]) is given as 4.60 (3.68‐5.75); in series [1] (setting [12]), 6.30 (4.93‐8.05). For the same compound, the AUC in series [1] (human, in vivo, 800 mg, Group 1 Day 3, AL‐335 alone, mean (SD)) was 295 ng·h/mL; in series [1] (human, in vivo, 800 mg, Group 2 Day 3, AL‐335 alone, mean (SD)), 324 ng·h/mL; in series [1] (human, in vivo, Group 1 Day 13, AL‐335 + SMV, mean (SD)), 1000 ng·h/mL; in series [1] (human, in vivo, Group 1 Day 23, AL‐335 + ODV + SMV, mean (SD)), 2080 ng·h/mL; in series [1] (human, in vivo, Group 2 Day 13, AL‐335 + ODV, mean (SD)), 1330 ng·h/mL; in series [1] (human, in vivo, Group 2 Day 23, AL‐335 + ODV + SMV, mean (SD)), 2920 ng·h/mL. Besides, the Tmax amounted to 2 h in series [1] (human, in vivo, 800 mg, Group 1 Day 3, AL‐335 alone, median (range)); 2 h in series [1] (human, in vivo, 800 mg, Group 2 Day 3, AL‐335 alone, median (range)); 2 h in series [1] (human, in vivo, Group 1 Day 13, AL‐335 + SMV, median (range)); 2 h in series [1] (human, in vivo, Group 1 Day 23, AL‐335 + ODV + SMV, median (range)); 2 h in series [1] (human, in vivo, Group 2 Day 13, AL‐335 + ODV, median (range)); 3 h in series [1] (human, in vivo, Group 2 Day 23, AL‐335 + ODV + SMV, median (range)). Further, the half-life was 0.61 h in series [1] (human, in vivo, 800 mg, t 1/2, Group 1 Day 3, AL‐335 alone, mean (SD)); 0.69 h in series [1] (human, in vivo, 800 mg, t 1/2, Group 2 Day 3, AL‐335 alone, mean (SD)); 0.64 h in series [1] (human, in vivo, t 1/2, Group 1 Day 13, AL‐335 + SMV, mean (SD)); 0.69 h in series [1] (human, in vivo, t 1/2, Group 1 Day 23, AL‐335 + ODV + SMV, mean (SD)); 0.62 h in series [1] (human, in vivo, t 1/2, Group 2 Day 13, AL‐335 + ODV, mean (SD)); 0.84 h in series [1] (human, in vivo, t 1/2, Group 2 Day 23, AL‐335 + ODV + SMV, mean (SD)). Further, the “AUC 0‐24 h increase” value in series [1] (odalasvir given alone with AL‐335 (abstract)) is 3 fold; in series [1] (simeprevir given alone with AL‐335 (abstract)), 4 fold. Also, the “interaction with host polymerases” value in series [2] was “do not interact”. In addition, the “inhibition potential for CYPs” value in series [3] is “low inhibition potential”. In addition, the BCRP substrate status result in series [4] was “substrate”. The “OATP1B1/1B3 substrate / inhibitor status” value with OATP1B1/1B3 (ref data on file) is “neither a substrate nor an inhibitor”.
For the compound `COC(=O)N[C@H](C(=O)N1[C@H](c2nc3cc(-c4cc5ccc4CCc4ccc(c(-c6ccc7[nH]c([C@@H]8C[C@@H]9CCCC[C@@H]9N8C(=O)[C@@H](NC(=O)OC)C(C)C)nc7c6)c4)CC5)ccc3[nH]2)C[C@@H]2CCCC[C@@H]21)C(C)C` [odalasvir], in series [1] (human, in vivo), the “AUC0‐24 h” value was 8694 (3956) ng.h/mL; the C max is given as 582 (221) ng/mL; the T max is 5.00 (5.0‐7.0) h; the “increase in exposure (C max, C min, AUC0‐24 h)” value was 1.5‐ to 2. Moreover, in series [1] (in vivo), the C min was 235 (132) ng/mL, the Clast is reported as 287 (150) ng/mL and the T last is on record as 23.9 (23.9‐24.0) h. Further, in series [5], the “clearance route and metabolism” value was “primarily cleared by biliary secretion and undergoes minimal metabolism”; the “drug‐drug interactions (DDIs)” value is reported as “No clinically significant drug‐drug interactions”; the “terminal elimination half‐life” value was “approximately 250 hours”.
